Test results: patent publication US20240123079A1 (Seagen Inc., priority 2021, published 2024)

Experiment: In vivo cytokine assay, plasma of Renca tumor-bearing mice
Set-up: species or system mouse; IFNg production in plasma / IL-1b production in plasma / IL-6 production in plasma / IL12p70 production in plasma / IP10 production in plasma / MIP1a production in plasma / MIP1b production in plasma / TNFa production in plasma: unit not given here
Procedure: Cytokines were measured in mouse plasma harvested at 3, 6, 24, or 48 hours after treatment with compounds or ADCs using a Milliplex MAP mouse cytokine/chemokine magnetic bead panel assay kit (MCYTOMAG-70k custom 11-plex kit: MCP1, MIP1α, MIP1β, TNFα, IFNγ, IL-10, IL-12p70, IL-6, IL-1β, IP10, RANTES) and analyzed using a Luminex™ MAGPIX™ Instrument System. Values that were outside of the standard curve range (<3.2 or […]) were excluded from calculation of the mean values.

CCn1nc(C)cc1C(=O)Nc1nc2cc(C(N)=O)cc(OC)c2n1C/C=C/Cn1c(NC(=O)c2cc(C)nn2CC)nc2cc(C(N)=O)cc(OCCCNC)c21 [Compound 12a]
IP10 production in plasma (0.6 mg/kg, dose #1, 24 h): 381.8
MCP-1 production in plasma (0.6 mg/kg, dose #1, 24 h): 141.5
MIP1a production in plasma (0.6 mg/kg, dose #1, 24 h): <3.2
MIP1b production in plasma (0.6 mg/kg, dose #1, 24 h): <3.2
RANTES production in plasma (0.6 mg/kg, dose #1, 24 h): 46.2
TNFa production in plasma (0.6 mg/kg, dose #1, 24 h): 5.2
IFNg production in plasma (0.6 mg/kg, dose #1, 48 h): <3.2
IL12p70 production in plasma (0.6 mg/kg, dose #1, 48 h): <3.2
IL-1b production in plasma (0.6 mg/kg, dose #1, 48 h): 5.7
IL-6 production in plasma (0.6 mg/kg, dose #1, 48 h): 1.8
IL-10 production in plasma (0.6 mg/kg, dose #1, 48 h): <3.2
IP10 production in plasma (0.6 mg/kg, dose #1, 48 h): 218.4
MCP-1 production in plasma (0.6 mg/kg, dose #1, 48 h): 40.0
MIP1a production in plasma (0.6 mg/kg, dose #1, 48 h): 10.3
MIP1b production in plasma (0.6 mg/kg, dose #1, 48 h): <3.2
RANTES production in plasma (0.6 mg/kg, dose #1, 48 h): 5.0
TNFa production in plasma (0.6 mg/kg, dose #1, 48 h): <3.2
IFNg production in plasma (0.6 mg/kg, dose #2, 6 h): 41.5
IL12p70 production in plasma (0.6 mg/kg, dose #2, 6 h): 28.4
IL-1b production in plasma (0.6 mg/kg, dose #2, 6 h): 5.8
IL-6 production in plasma (0.6 mg/kg, dose #2, 6 h): 516.9
IL-10 production in plasma (0.6 mg/kg, dose #2, 6 h): <3.2
IP10 production in plasma (0.6 mg/kg, dose #2, 6 h): 3996.6
MCP-1 production in plasma (0.6 mg/kg, dose #2, 6 h): 9761.2
MIP1a production in plasma (0.6 mg/kg, dose #2, 6 h): 115.5
MIP1b production in plasma (0.6 mg/kg, dose #2, 6 h): 837.6
RANTES production in plasma (0.6 mg/kg, dose #2, 6 h): 621.6
TNFa production in plasma (0.6 mg/kg, dose #2, 6 h): 16.7
IFNg production in plasma (1.8 mg/kg, dose #1, 3 h): <3.2
IL12p70 production in plasma (1.8 mg/kg, dose #1, 3 h): 3.1
IL-1b production in plasma (1.8 mg/kg, dose #1, 3 h): 7.5
IL-6 production in plasma (1.8 mg/kg, dose #1, 3 h): 4314.6
IL-10 production in plasma (1.8 mg/kg, dose #1, 3 h): 27.3
IP10 production in plasma (1.8 mg/kg, dose #1, 3 h): 8222.7
MCP-1 production in plasma (1.8 mg/kg, dose #1, 3 h): 5805.3
MIP1a production in plasma (1.8 mg/kg, dose #1, 3 h): 1052.6
MIP1b production in plasma (1.8 mg/kg, dose #1, 3 h): 7438.6
RANTES production in plasma (1.8 mg/kg, dose #1, 3 h): 51.2
TNFa production in plasma (1.8 mg/kg, dose #1, 3 h): 46.4
IFNg production in plasma (1.8 mg/kg, dose #1, 6 h): 36.4
IL12p70 production in plasma (1.8 mg/kg, dose #1, 6 h): <3.2
IL-1b production in plasma (1.8 mg/kg, dose #1, 6 h): 0.7
IL-6 production in plasma (1.8 mg/kg, dose #1, 6 h): 543.0
IL-10 production in plasma (1.8 mg/kg, dose #1, 6 h): 9.9
IP10 production in plasma (1.8 mg/kg, dose #1, 6 h): 7589.2
MCP-1 production in plasma (1.8 mg/kg, dose #1, 6 h): 13861.5
MIP1a production in plasma (1.8 mg/kg, dose #1, 6 h): 172.2
MIP1b production in plasma (1.8 mg/kg, dose #1, 6 h): 1162.7
RANTES production in plasma (1.8 mg/kg, dose #1, 6 h): 526.2
TNFa production in plasma (1.8 mg/kg, dose #1, 6 h): 21.2
IFNg production in plasma (1.8 mg/kg, dose #1, 24 h): <3.2
IL12p70 production in plasma (1.8 mg/kg, dose #1, 24 h): <3.2
IL-1b production in plasma (1.8 mg/kg, dose #1, 24 h): 3.2
IL-6 production in plasma (1.8 mg/kg, dose #1, 24 h): 6.8
IL-10 production in plasma (1.8 mg/kg, dose #1, 24 h): <3.2
IP10 production in plasma (1.8 mg/kg, dose #1, 24 h): 595.6
MCP-1 production in plasma (1.8 mg/kg, dose #1, 24 h): 143.9
MIP1a production in plasma (1.8 mg/kg, dose #1, 24 h): 10.3
MIP1b production in plasma (1.8 mg/kg, dose #1, 24 h): <3.2
RANTES production in plasma (1.8 mg/kg, dose #1, 24 h): 48.8
TNFa production in plasma (1.8 mg/kg, dose #1, 24 h): 3.2
IFNg production in plasma (1.8 mg/kg, dose #1, 48 h): <3.2
IL12p70 production in plasma (1.8 mg/kg, dose #1, 48 h): <3.2
IL-1b production in plasma (1.8 mg/kg, dose #1, 48 h): 3.2
IL-6 production in plasma (1.8 mg/kg, dose #1, 48 h): 1.5
IL-10 production in plasma (1.8 mg/kg, dose #1, 48 h): <3.2
IP10 production in plasma (1.8 mg/kg, dose #1, 48 h): 223.5
MCP-1 production in plasma (1.8 mg/kg, dose #1, 48 h): 2.0
MIP1a production in plasma (1.8 mg/kg, dose #1, 48 h): <3.2
MIP1b production in plasma (1.8 mg/kg, dose #1, 48 h): <3.2
RANTES production in plasma (1.8 mg/kg, dose #1, 48 h): <3.2
TNFa production in plasma (1.8 mg/kg, dose #1, 48 h): 3.2
IFNg production in plasma (1.8 mg/kg, dose #2, 6 h): 80.4
IL12p70 production in plasma (1.8 mg/kg, dose #2, 6 h): 28.4
IL-1b production in plasma (1.8 mg/kg, dose #2, 6 h): 4.6
IL-6 production in plasma (1.8 mg/kg, dose #2, 6 h): 1681.6
IL-10 production in plasma (1.8 mg/kg, dose #2, 6 h): 7.7
IP10 production in plasma (1.8 mg/kg, dose #2, 6 h): 4151.5
MCP-1 production in plasma (1.8 mg/kg, dose #2, 6 h): 17185.9
MIP1a production in plasma (1.8 mg/kg, dose #2, 6 h): 209.9
MIP1b production in plasma (1.8 mg/kg, dose #2, 6 h): 1407.7
RANTES production in plasma (1.8 mg/kg, dose #2, 6 h): 892.1
TNFa production in plasma (1.8 mg/kg, dose #2, 6 h): 46.4
systemic pro-inflammatory cytokine (IL-6 and TNF) production (plasma of tumor-bearing mice): induced robust production of IL-6 and TNF
